Test results taken from patent publication US8637511B2, “Aminopyrimidines useful as kinase inhibitors” (Vertex Pharmaceuticals Incorporated, priority 2005, dated 2014).
“And” between values parts separate entries of the source, which are not always exact repeats. Equal entries are not always repeated. Where two headings read alike, the source gives them in different places.

Assays:
Aurora-1 (Aurora B) = Aurora-1 (Aurora B) (Homo sapiens, UniProt Q96GD4); assay: Aurora-1 (Aurora B) inhibition assay (radiometric); assay type: biochemical; conditions: read-out: Aurora B kinase Ki value
Aurora-1 (Aurora B), sequence (Q96GD4 whole entry): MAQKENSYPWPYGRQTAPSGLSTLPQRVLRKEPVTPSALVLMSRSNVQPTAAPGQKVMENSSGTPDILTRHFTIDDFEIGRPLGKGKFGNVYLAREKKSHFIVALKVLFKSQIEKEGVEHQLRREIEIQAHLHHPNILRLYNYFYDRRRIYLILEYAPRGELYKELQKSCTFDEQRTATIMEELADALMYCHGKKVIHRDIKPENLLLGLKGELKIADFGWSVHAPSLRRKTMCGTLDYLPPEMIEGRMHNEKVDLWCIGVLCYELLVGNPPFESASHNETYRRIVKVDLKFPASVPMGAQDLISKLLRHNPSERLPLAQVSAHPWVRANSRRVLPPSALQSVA
Description: An assay buffer solution was prepared which consisted of 25 mM HEPES (pH 7.5), 10 mM MgCl2, 0.1% BSA and 10% glycerol. […] To 22 μL of the Aurora-B solution, in a 96-well plate, was added 2 μl of a compound stock solution in DMSO and the mixture allowed to equilibrate for 10 minutes at 25° C. The enzyme reaction was initiated by the addition of 16 μl stock [γ-^33P]-ATP solution (˜20 nCi/μL) prepared in assay buffer, to a final assay concentration of 800 μM. The reaction was stopped after 3 hours by the addition of 16 μL 500 mM phosphoric acid and the levels of ^33P incorporation into the peptide substrate were determined by the following method.
A phosphocellulose 96-well plate (Millipore, Cat no. MAPHNOB50) was pre-treated with 100 μL of a 100 mM phosphoric acid prior to the addition of the enzyme reaction mixture (40 μL). The solution was left to soak on to the phosphocellulose membrane for 30 minutes and the plate subsequently washed four times with 200 μL of a 100 mM phosphoric acid. […] Levels of non-enzyme catalyzed background radioactivity were determined by adding 16 μL of the 500 mM phosphoric acid to control wells, containing all assay components (which acts to denature the enzyme), prior to the addition of the [γ-^33P]-ATP solution. Levels of enzyme catalyzed. ^33P incorporation were calculated by subtracting mean background counts from those measured at each inhibitor concentration. […] Ki values were calculated from initial rate data by non-linear regression using the Prism software package (Prism 3.0, Graphpad Software, San Diego, Calif.).

Colo205 cells = assay: Analysis of cell proliferation and viability; assay type: cell-based; conditions: Homo sapiens, read-out: IC50 value
Description: Colo205 cells were seeded in 96 well plates and serially diluted compound was added to the wells in duplicate. Control groups included untreated cells, the compound diluent (0.1% DMSO alone) and culture medium without cells.
To measure proliferation, 3 h prior to the end of the experiment 0.5 μCi of 3H thymidine was added to each well. Cells were then harvested and the incorporated radioactivity counted on a Wallac microplate beta-counter. Cell viability was assessed using Promega CellTiter 96AQ to measure MTS conversion. Dose response curves were calculated using either Prism 3.0 (GraphPad) or SoftMax Pro 4.3.1 LS (Molecular Devices) software.

Aurora-2 (Aurora A) = molecular target: T1, Aurora-2 (Aurora A) (Homo sapiens, UniProt O14965); assay: Aurora-2 (Aurora A) inhibition assay, coupled enzyme; assay type: biochemical
T1 sequence (O14965 1-403): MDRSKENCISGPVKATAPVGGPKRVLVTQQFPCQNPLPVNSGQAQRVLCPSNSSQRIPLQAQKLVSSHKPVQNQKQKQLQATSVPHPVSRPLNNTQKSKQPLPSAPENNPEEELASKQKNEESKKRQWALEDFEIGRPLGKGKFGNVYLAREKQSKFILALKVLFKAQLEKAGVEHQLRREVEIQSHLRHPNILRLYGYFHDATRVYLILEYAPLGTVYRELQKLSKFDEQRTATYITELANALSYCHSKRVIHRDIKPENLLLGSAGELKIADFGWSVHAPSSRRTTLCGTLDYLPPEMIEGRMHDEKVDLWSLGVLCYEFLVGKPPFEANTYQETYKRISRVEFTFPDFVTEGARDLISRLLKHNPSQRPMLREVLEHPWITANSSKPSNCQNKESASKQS
Description: Assays were carried out in a mixture of 100 mM Hepes (pH7.5), 10 mM MgCl2, 1 mM DTT, 25 mM NaCl, 2.5 mM phosphoenolpyruvate, 300 μM NADH, 30 μg/ml pyruvate kinase and 10 μg/ml lactate dehydrogenase. […] Assays were carried out at 30° C. and in the presence of 40 nM Aurora-2.
The plate was preincubated for 10 minutes at 30° C. and the reaction initiated by addition of 10 μl of Aurora-2. Initial reaction rates were determined with a Molecular Devices SpectraMax Plus plate reader over a 10 minute time course. IC50 and Ki data were calculated from non-linear regression analysis using the Prism software package (GraphPad Prism version 3.0cx for Macintosh, GraphPad Software, San Diego Calif., USA).

[1] = COLO 205, Colo205 cells, incubated for 96 hours
[2] = read-out: Aurora A kinase Ki value
[3] = COLO 205, Colo205 cells, incubated for 72 hours

| Ki (Aurora-1 (Aurora B)) | IC50 (Colo205 cells; [1]) [nM] | Ki (Aurora-2 (Aurora A); [2]) [nM] | IC50 (Colo205 cells; [3]) [nM] | Compound | also measured |
| --- | --- | --- | --- | --- | --- |
| 10 to 50 nM and < 25 nM | 50 to 1000 | ≤ 1 | – | Cc1cc(Nc2cc(N3CC(F)(C4CC4)C3)nc(Sc3ccc4nc(C)ccc4c3)n2)[nH]n1 [Compound 154] | – |
| ≤ 10 nM | – | ≤ 1 | ≤ 30 | Cc1cc(Nc2cc(N3CC(F)(C4CC4)C3)nc(Sc3ccc4nc(CC(F)(F)F)n(C)c4c3)n2)[nH]n1 [Compound 187] | – |
| 10 to 50 nM and < 25 nM | 50 to 1000 | – | – | Cc1cc(Nc2cc(N3CCC3)nc(Sc3ccc(C(=O)NC4CC4)cc3)n2)n[nH]1 [Compound 18] | Ki (Aurora-2 (Aurora A)): 5 to 200 nM |
| 50 to 2000 nM | 50 to 1000 | 5 to 200 | – | Cc1cc(Nc2cc(N3CCC3)nc(Sc3ccc(NC(=O)c4sc(C)nc4C)cc3)n2)n[nH]1 [Compound 41] | – |
| 50 to 2000 nM | – | ≤ 1 | > 200 | CCC(Nc1ccc(Sc2nc(Nc3cc(C)n[nH]3)cc(N3CC(O)(C4CC4)C3)n2)cc1)C(F)(F)F (stereo not shown) [Compound 136] | – |
| 50 to 2000 nM | 50 to 1000 | ≤ 1 | – | CCC(=O)Nc1ccc(Sc2nc(Nc3cc(C)n[nH]3)cc(N3CC(O)(c4ccccc4C)C3)n2)cc1 [Compound 93] | – |
| – | 50 to 1000 | – | – | Cc1cc(Nc2cc(N3CCC3)nc(Sc3ccc(NC(=O)c4cccc(Cl)c4Cl)cc3)n2)n[nH]1 [Compound 42] | – |
| ≤ 10 nM | ≤ 50 | ≤ 1 | – | CCC(=O)Nc1ccc(Sc2nc(Nc3cc(C)n[nH]3)cc(N3CC(O)(C4CCCCC4)C3)n2)cc1 [Compound 101] | – |
| – | – | – | – | Cc1cc(Nc2cc(N3CC(F)(C4CC4)C3)nc(Sc3ccc(NC(=O)CCC(F)(F)F)cc3)n2)[nH]n1 [Compound 157] | IC50 (Colo205 cells; COLO 205, 72 h): ≤ 30 nM; IC50 (Colo205 cells; COLO 205, 96 h): ≤ 50 nM |
| ≤ 10 nM | – | ≤ 1 | 30 to 200 | Cc1cc(Nc2cc(NCC3(C)COC3)nc(Sc3ccc(NC(=O)c4ccccc4Cl)cc3)n2)[nH]n1 [Compound 208] | – |
| ≤ 10 nM | ≤ 50 | ≤ 1 | – | CCCCOC1(C2CC2)CN(c2cc(Nc3cc(C)n[nH]3)nc(Sc3ccc(NC(=O)C4CC4)cc3)n2)C1 [Compound 111] | – |
| 50 to 2000 nM | – | 1 to 5 | > 200 | CCOc1ccc(Sc2nc(Nc3cc(C)n[nH]3)cc(N3CC(C(=O)N4CCCC4)C3)n2)cc1 [Compound 141] | – |
| 50 to 2000 nM | > 1000 | – | – | Cc1cc(Nc2cc(C(=O)N3CCC3)nc(Sc3ccc(NC(=O)c4ccccc4Cl)cc3)n2)n[nH]1 [Compound 62] | – |
| 10 to 50 nM and < 25 nM | – | ≤ 1 | ≤ 30 | Cc1cc(Nc2cc(N3CC(O)(C4CC4)C3)nc(Sc3ccc(N4CCCC4=O)cc3)n2)n[nH]1 [Compound 133] | – |
| 50 to 2000 nM | ≤ 50 | 1 to 5 | – | CCC(=O)Nc1ccc(Sc2nc(Nc3cc(C)n[nH]3)cc(N3CC(N4CCC4)C3)n2)cc1 [Compound 70] | – |
| – | 50 to 1000 | – | – | CCC(=O)Nc1ccc(Sc2nc(Nc3cc(C)n[nH]3)cc(N3CC(O)(CC)C3)n2)cc1 [Compound 98] | – |
| 10 to 50 nM | 50 to 1000 | – | – | Cc1cc(Nc2cc(N3CCC3)nc(Sc3ccc(NC(=O)c4cc(F)ccc4F)cc3)n2)n[nH]1 [Compound 45] | – |
| 50 to 2000 nM | – | 1 to 5 | > 200 | CCN(C)C(=O)c1ccc(Sc2nc(Nc3cc(C)[nH]n3)cc(N3CC(O)(C4CC4)C3)n2)cc1 [Compound 125] | – |

| Ki (Aurora-1 (Aurora B)) | IC50 (Colo205 cells; [1]) [nM] | Ki (Aurora-2 (Aurora A); [2]) [nM] | IC50 (Colo205 cells; [3]) [nM] | Compound | also measured |
| --- | --- | --- | --- | --- | --- |
| ≤ 10 nM | – | ≤ 1 | 30 to 200 | Cc1cc(Nc2cc(N3CC(C)(C#N)C3)nc(Sc3ccc(NC(=O)c4ccccc4C(F)(F)F)cc3)n2)[nH]n1 [Compound 122] | – |
| 50 to 2000 nM | > 1000 | 5 to 200 | – | Cc1cc(Nc2cc(N3CCC3)nc(Sc3ccc(-n4ccccc4=O)cc3)n2)[nH]n1 [Compound 47] | – |
| ≤ 10 nM | 50 to 1000 | ≤ 1 | – | CCC(=O)Nc1ccc(Sc2nc(Nc3cc(C)n[nH]3)cc(N3CC(O)(c4ccccc4)C3)n2)cc1 [Compound 86] | – |
| ≤ 10 nM | ≤ 50 | ≤ 1 | – | Cc1cc(Nc2cc(N3CC(O)(C4CC4)C3)nc(Sc3ccc4nc(C)ccc4c3)n2)[nH]n1 [Compound 153] | – |
| 10 to 50 nM | 50 to 1000 | 1 to 5 | – | Cc1cc(Nc2cc(N3CCC3)nc(Sc3ccc(NC(=O)c4sccc4Cl)cc3)n2)n[nH]1 [Compound 43] | – |
| – | ≤ 50 | – | – | CCC(=O)Nc1ccc(Sc2nc(Nc3cc(C)n[nH]3)cc(N3CC(O)(CC(C)(C)C)C3)n2)cc1 [Compound 84] | – |
| 10 to 50 nM | > 1000 | 5 to 200 | – | Cc1cc(Nc2cc(N3CCC3)nc(Sc3ccc(NC(=O)c4cccnc4C)cc3)n2)[nH]n1 [Compound 63] | – |
| ≤ 10 nM | – | ≤ 1 | ≤ 30 | COC1(C2CC2)CN(c2cc(Nc3cc(C)[nH]n3)nc(Sc3ccc(NC(=O)C4CC4)cc3)n2)C1 [Compound 118] | – |
| ≤ 10 nM | 50 to 1000 | ≤ 1 | – | COC(=O)c1ccc(Sc2nc(Nc3cc(C4CC4)[nH]n3)cc(N3CC(O)(C4CC4)C3)n2)cc1 [Compound 106] | – |
| 10 to 50 nM and < 25 nM | – | – | ≤ 30 | Cc1cc(Nc2cc(N3CC(N4CCCC4)C3)nc(Sc3ccc4nc(C(F)(F)F)n(C)c4c3)n2)[nH]n1 [Compound 176] | – |
| 50 to 2000 nM | > 1000 | 5 to 200 | – | CCN(CC)C(=O)Nc1ccc(Sc2nc(Nc3cc(C)[nH]n3)cc(N3CCC3)n2)cc1 [Compound 72] | – |
| 50 to 2000 nM | – | 1 to 5 | > 200 | Cc1cc(Nc2cc(N3CC(F)(C4CC4)C3)nc(Nc3ccc4nc(C(F)(F)F)[nH]c4c3)n2)[nH]n1 [Compound 210] | – |
| 10 to 50 nM and < 25 nM | – | 1 to 5 | 30 to 200 | Cc1cc(Nc2cc(N3CC(F)(F)C3)nc(Sc3ccc(NC(=O)CC(F)(F)F)cc3)n2)[nH]n1 [Compound 130] | – |
| 50 to 2000 nM | – | 5 to 200 | > 200 | CCC(=O)Nc1ccc(Sc2nc(CCN3CCC3)cc(Nc3cc(C)n[nH]3)n2)cc1 [Compound 197] | – |
| 50 to 2000 nM | – | 5 to 200 | > 200 | Cc1cc(Nc2cc(N3CCC3)nc(Sc3ccc(NC(=O)c4ncccc4C)cc3)n2)[nH]n1 [Compound 200] | – |
| – | 50 to 1000 | – | – | CSc1ccccc1C(=O)Nc1ccc(Sc2nc(Nc3cc(C)[nH]n3)cc(N3CCC3)n2)cc1 [Compound 165] | – |
| – | – | – | – | Cc1cc(Nc2cc(N3CC(F)(C4CC4)C3)nc(Sc3ccc(NC(=O)C4(C(F)(F)F)CC4)cc3)n2)[nH]n1 [Compound 143] | IC50 (Colo205 cells; COLO 205, 72 h): ≤ 30 nM |
| 50 to 2000 nM | 50 to 1000 | – | – | Cc1cc(Nc2cc(N3CCC3)nc(Sc3ccc(NC(=O)c4cccc(CN5CCC5)c4)cc3)n2)[nH]n1 [Compound 140] | – |

| Compound | Ki (Aurora-1 (Aurora B)) | IC50 (Colo205 cells; [1]) [nM] | Ki (Aurora-2 (Aurora A); [2]) [nM] | IC50 (Colo205 cells; [3]) [nM] | also measured |
| --- | --- | --- | --- | --- | --- |
| CCC(=O)Nc1ccc(Sc2nc(Nc3cc(C)[nH]n3)cc(N3CC(F)(C4CC4)C3)n2)cc1 [Compound 147] | – | – | 1 to 5 | – | IC50 (Colo205 cells; COLO 205, 72 h): 30 to 200 nM |
| Cc1cc(Nc2cc(N3CCC3)nc(Sc3ccc(NC(=O)c4ccccc4C(F)F)cc3)n2)[nH]n1 [Compound 120] | – | – | – | > 200 | – |
| COc1cccc(C(=O)Nc2ccc(Sc3nc(Nc4cc(C)n[nH]4)cc(N4CCC4)n3)cc2)c1 [Compound 116] | – | – | – | > 200 | – |
| Cc1cc(Nc2cc(N3CC(F)(C4CC4)C3)nc(Sc3ccc(N)cc3)n2)[nH]n1 [Compound 174] | – | – | – | > 200 | – |
| Cc1cc(Nc2cc(N3CCC3)nc(Sc3ccc(NC(=O)c4ccccc4Cl)nc3)n2)[nH]n1 [Compound 207] | – | – | 1 to 5 | > 200 | – |
